Test results: patent US10047105B2, “Gyrase inhibitors” (Merck Sharp & Dohme Corp., priority 2009, dated 2018)

Columns and labels:
S. aureus ATCC 13709 = test: MIC, antibacterial potency, S. aureus; type: cell-based; settings: S. aureus (SA); in µg/mL
S. pneumoniae ATCC 51916 = test: MIC, S. pneumoniae; type: cell-based; settings: S. pneumoniae (Spn52); in µg/mL

Row | MIC, SA (S. aureus ATCC 13709) | MIC Spn52 (S. pneumoniae ATCC 51916) | SMILES
1 | >64 | >64 | CCc1[nH]c2nc(Oc3cncc(C#N)c3)nc(Oc3ccc(OC)c(OC)c3)c2c1Cl [700,813]
2 | 2 | 4 | CCc1[nH]c2nc(Sc3cnc4nccnc4c3)nc(N3CCCC(CO)C3)c2c1Cl (stereo not shown) [700,814]
3 | 2 | 2 | CCc1[nH]c2nc(Sc3cnc4nccnc4c3)nc(N3CCC(CN4CCCC4=O)CC3)c2c1Cl [700,815]
4 | <=0.5 | <=0.5 | CCc1[nH]c2nc(Sc3cnc4nccnc4c3)nc(N3C[C@@H]4[C@@H](N)[C@@H]4C3)c2c1Cl [700,816]
5 | <=0.5 | <=0.5 | CCc1[nH]c2nc(Sc3cnc4cccnc4c3)nc(N3C[C@@H]4[C@@H](N)[C@@H]4C3)c2c1Cl [700,817]
6 | 2 | 8 | CCc1[nH]c2nc(Sc3ccc(C#N)nc3)nc(N3CC[C@@H](N)C3)c2c1Cl [700,818]
7 | 16 | 32 | CCc1[nH]c2nc(Sc3cncc(N)c3)nc(N3CC[C@@H](N)C3)c2c1Cl [700,820]
8 | >64 | >64 | CCc1[nH]c2nc(Sc3cncc(O)c3)nc(N3CC[C@@H](N)C3)c2c1Cl [700,821]
9 | >64 | >64 | CCc1[nH]c2nc(Sc3cnc4nccnc4c3)nc(N3C[C@@H]4[C@H](C3)[C@H]4N(Cc3ccccc3)Cc3ccccc3)c2c1Cl [700,822]
10 | 64 | 64 | CCc1[nH]c2nc(Sc3cnc4cccnc4c3)nc(N3C[C@@H]4[C@H](C3)[C@H]4N(Cc3ccccc3)Cc3ccccc3)c2c1Cl [700,823]
11 | 2 | 8 | CCc1[nH]c2nc(Sc3cncc(C#N)c3)nc(N3CC[C@@H](N)C3)c2c1Cl [700,824]
12 | 64 | >64 | CCc1[nH]c2nc(Sc3ccc4c(N5CC[C@@H](N)C5)cc(C(=O)O)nc4c3)nc(N3CC[C@@H](N)C3)c2c1Cl [700,825]
13 | 8 | 32 | CCc1[nH]c2nc(Sc3cnc4c(N)nc(CN5CCNCC5)nc4c3)nc(N3CC[C@@H](N)C3)c2c1Cl [700,826]
14 | 4 | 32 | CCc1[nH]c2nc(Sc3cnc4c(N)nc(CN5CCC(N)CC5)nc4c3)nc(N3CC[C@@H](N)C3)c2c1Cl [700,827]
15 | >64 | >64 | CCc1[nH]c2nc(Oc3cncc(C#N)c3)nc(Oc3cccc(C(=O)O)c3)c2c1Cl [700,828]
16 | 16 | 32 | CCc1[nH]c2nc(Sc3cnc4nccnc4c3)nc(N3CCC(CN)CC3)c2c1Cl [700,829]
17 | <=0.5 | 2 | CCc1[nH]c2nc(Sc3cnc4nccnc4c3)nc(N3CCC(CO)C3)c2c1Cl (stereo not shown) [700,830]
18 | 2 | 4 | C=Cc1nc(Oc2cccc(C#N)c2)nc2[nH]c(CC)c(Cl)c12 [700,831]
19 | 4 | >8 | C=CCc1nc(Oc2ccc(Cl)c(C#N)c2)nc2[nH]c(CC)c(Cl)c12 [700,832]
20 | <=0.5 | 2 | CCc1[nH]c2nc(Sc3cnc4nccnc4c3)nc(Oc3cccc(C#N)c3)c2c1Cl [700,833]
21 | 1 | 8 | CCc1[nH]c2nc(Sc3cnc4nccnc4c3)nc(Oc3ccc(OC)c(C#N)c3)c2c1Cl [700,834]

Row | MIC, SA (S. aureus ATCC 13709) | MIC Spn52 (S. pneumoniae ATCC 51916) | SMILES
22 | 4 | 8 | CCc1[nH]c2nc(Sc3ccc4cc5c(nc4c3)CCNC5)nc(N3CC[C@@H](N)C3)c2c1Cl [700,841]
23 | 4 | >64 | CCc1[nH]c2nc(Sc3cnc4nccnc4c3)nc(N3CC(NC(=O)C4CNC4)C3)c2c1Cl [700,842]
24 | 64 | >64 | CCc1[nH]c2nc(Sc3ccc4c(N5CC[C@@H](N)C5)cc(C)nc4c3)nc(N3CC[C@@H](N)C3)c2c1Cl [700,843]
25 | 64 | 32 | CCc1[nH]c2nc(Sc3ccc4nnc(C(=O)NCCN5CCCC5)nc4c3)nc(N3CC[C@@H](N)C3)c2c1Cl [700,844]
26 | >64 | >64 | CCc1[nH]c2nc(Sc3ccc4nnc(C(=O)NCC5CCNCC5)nc4c3)nc(N3CC[C@@H](N)C3)c2c1Cl [700,845]
27 | >64 | >64 | CCc1[nH]c2nc(Sc3ccc4c(N)nc(CN5CCC(N)CC5)nc4c3)nc(N3CC[C@@H](N)C3)c2c1Cl [700,846]
28 | >64 | >64 | CCc1[nH]c2nc(Sc3ccc4c(N)nc(CN5CCNCC5)nc4c3)nc(N3CC[C@@H](N)C3)c2c1Cl [700,847]
29 | 64 | 64 | CCc1[nH]c2nc(Sc3cc(F)cc(F)c3C#N)nc(N3CC[C@@H](N)C3)c2c1Cl [700,848]
30 | 64 | >64 | CCc1[nH]c2nc(Sc3ccc4c(N)n[nH]c4c3)nc(N3CC(N)C3)c2c1Cl [700,850]
31 | <=0.5 | 4 | CCc1[nH]c2nc(Sc3cnc4nccnc4c3)nc(N3CCC(c4cccnc4)C3)c2c1Cl (stereo not shown) [700,851]
32 | 1 | 1 | CCc1[nH]c2nc(Sc3cnc4cccnc4c3)nc(N3CC4CC3CC4N)c2c1Cl (stereo not shown) [700,857]
33 | 8 | >64 | CCc1[nH]c2nc(Sc3cnc4nccnc4c3)nc(N3CC(CNC(=O)C4CNC4)C3)c2c1Cl [700,858]
34 | 32 | >64 | CCc1[nH]c2nc(Sc3ccc4cc(C(=O)O)c(C(=O)O)nc4c3)nc(N3CC[C@@H](N)C3)c2c1Cl [700,859]
35 | >64 | >64 | CCc1[nH]c2nc(Sc3ccc4c(N5CC(C6(N)CC6)C5)cc(C(=O)O)nc4c3)nc(N3CC[C@@H](N)C3)c2c1Cl [700,860]
36 | 16 | >64 | CCc1[nH]c2nc(Sc3ccc4cc5c(=O)[nH][nH]c(=O)c5nc4c3)nc(N3CC[C@@H](N)C3)c2c1Cl [700,861]
37 | >64 | 32 | CCc1[nH]c2nc(Sc3ccc4nc(C)cc(C(N)=O)c4c3)nc(C3CC[C@@H](N)C3)c2c1Cl (stereo partly shown) [700,862]
38 | 8 | 8 | CCc1[nH]c2nc(Sc3cc(OC)c4c(N)nc(C)nc4c3)nc(N3CC[C@@H](N)C3)c2c1Cl [700,863]
39 | 4 | 4 | CCc1[nH]c2nc(Sc3cc(F)cc4nc(C)nc(N)c34)nc(N3CC[C@@H](N)C3)c2c1Cl [700,864]
40 | 1 | <=0.5 | CCc1[nH]c2nc(Sc3cc(Cl)c4c(N)nc(C)nc4c3)nc(N3CC[C@@H](N)C3)c2c1Cl [700,865]
41 | 1 | 8 | CCc1[nH]c2nc(Oc3cncnc3)nc(N(C)C)c2c1Br [700,866]
42 | <=0.5 | 1 | CCc1[nH]c2nc(Sc3cnc4cccnc4c3)nc(N3CC(Cc4cncnc4)C3)c2c1Cl [700,867]

Row | MIC, SA (S. aureus ATCC 13709) | MIC Spn52 (S. pneumoniae ATCC 51916) | SMILES
43 | >64 | >64 | CCc1[nH]c2nc(Sc3cnc4nccnc4c3)nc(N3C[C@H](N)C[C@@H]3CO)c2c1Cl [700,868]
44 | 2 | 4 | CCc1[nH]c2nc(Sc3cnc4cccnc4c3)nc(N3CC(N)C4(CC4)C3)c2c1Cl (stereo not shown) [700,869]
45 | 64 | 64 | CCc1[nH]c2nc(Sc3cnc4cccnc4c3)nc(N3C[C@H](N)C[C@@H]3CO)c2c1Cl [700,870]
46 | <=0.5 | 2 | CCc1[nH]c2nc(Sc3cnc4cccnc4c3)nc(N3CCC(c4cccnc4)C3)c2c1Cl (stereo not shown) [700,871]
47 | 1 | 2 | CCc1[nH]c2nc(Sc3cnc4cccnc4c3)nc(N3C[C@@H](N)[C@H](c4ccccc4)C3)c2c1Cl [700,872]
48 | 2 | 32 | CCc1[nH]c2nc(Sc3cnc4cccnc4c3)nc(N3C[C@@H](N)[C@@H](C(=O)OC)C3)c2c1Cl [700,873]
49 | 2 | 8 | CCc1[nH]c2nc(Oc3cccc(C#N)c3)nc(C3CC3)c2c1Cl [700,874]
50 | 32 | >32 | CCc1[nH]c2nc(Cc3cccnc3)nc(Oc3cccc(C#N)c3)c2c1Cl [700,875]
51 | 8 | 8 | CCc1[nH]c2nc(Sc3cnc4cccnc4c3)nc(N3CC(C(=O)N4CC(N)C4)C3)c2c1Cl [700,876]
52 | 4 | 8 | CCc1[nH]c2nc(Oc3cncnc3)nc(N3CC(N)C3)c2c1Br [700,877]
53 | <=0.5 | <=0.5 | CCc1[nH]c2nc(Oc3cncnc3)nc(Oc3cncc(C#N)c3)c2c1Br [700,878]
54 | <=0.5 | <=0.5 | CCc1[nH]c2nc(Oc3cnc4ccoc4c3)nc(Oc3cnc4ccoc4c3)c2c1Br [700,883]
55 | 4 | 16 | CCc1[nH]c2nc(Sc3cnc4nccnc4c3)nc(N3C[C@@H]4[C@H](C3)[C@@]4(N)CN)c2c1Cl [700,884]
56 | 2 | 4 | CCc1[nH]c2nc(Sc3cnc4cccnc4c3)nc(N3C[C@@H]4[C@H](C3)[C@@]4(N)CN)c2c1Cl [700,885]
57 | >8 | 8 | CCc1[nH]c2nc(Sc3cnc4nccnc4c3)nc(N3CC4C(C3)C4(CN)NCc3ccccc3)c2c1Cl (stereo not shown) [700,886]
58 | 8 | 4 | CCc1[nH]c2nc(Sc3cnc4cccnc4c3)nc(N3CC4C(C3)C4(CN)NCc3ccccc3)c2c1Cl (stereo not shown) [700,887]
59 | >64 | >64 | CCc1[nH]c2nc(Sc3cnc4cccnc4c3)nc(N3CCC(N)(C(=O)N[C@H]4CCOC4=O)C3)c2c1Cl (stereo partly shown) [700,888]
60 | 32 | 32 | CCc1[nH]c2nc(Sc3cnc4cccnc4c3)nc(N3CCC(N)(C(=O)N[C@H](CO)C(=O)OC)C3)c2c1Cl (stereo partly shown) [700,889]
61 | 2 | 4 | CCc1[nH]c2nc(Sc3cnc4cccnc4c3)nc(N3C[C@H](C4CCCCC4)[C@@H](N)C3)c2c1Cl [700,890]
62 | >64 | >64 | CCc1[nH]c2nc(Sc3cnc4cccnc4c3)nc(N3CCC(N)(C(=O)N[C@H](CO)C(=O)O)C3)c2c1Cl (stereo partly shown) [700,891]
